Test results: paper PMC12116161, “An Elastase Inhibitor ShSPI from Centipede Attenuates Bleomycin-Induced Pulmonary Fibrosis” (Toxins, 2025)
“Also recorded” adds a separate entry of the source. Where a SMILES comes first, the peptide text is derived from it. Bridges are numbered along the chain shown (N, C = ends).

What was measured:
[1] = test system: BLM-induced idiopathic pulmonary fibrosis (IPF) mouse model; test: Body weight changes in BLM-induced IPF mouse model; format: in vivo, ICR mice; conditions: tracheal spray once daily for 7 days, BLM-induced IPF mice
Protocol: Animal Model Preparation: The peptide powder was dissolved in pre-cooled saline and filtered to remove bacteria, then a spray needle was attached to a micro-syringe to aspirate the peptide solution. A total of 56 ICR mice were anesthetized by intramuscular injection of avertin. After anesthesia, the mice were fixed supine, the tongue was gently pulled, the vocal folds were exposed with a laryngoscope, the trachea was gently inserted, and the nebulized solution was rapidly pushed and injected. Each mouse was administered 100 μL of a 0.4 mg/mL bleomycin solution via tracheal spray, with the treatment performed once. Seven days after modeling, the mice were randomly grouped for ShSPI treatment based on weight loss scores. An additional 8 mice received the vehicle (normal saline) and were designated as the sham group.
A total of 48 suitable mice were randomly divided into five groups: the model control group (MC), the positive control group (PC), and the ShSPI low-dose groups (1 mg/kg), medium-dose groups (2 mg/kg), and high-dose groups (4 mg/kg).
Drug Administration: Starting on day 7 post-modeling, ShSPI peptide treatment groups were anesthetized with intramuscular avertin and received tracheal spray administration of the peptide. […]
Body Weight Monitoring: The body weight of the mice was monitored and recorded from the modeling phase to the end of treatment (a total of two weeks).

ICR healthy mice [2] = test: Single administration toxicity study: overall toxicity and examination of major organs; format: in vivo; conditions: single airway spray
Protocol: (§1) Specific pathogen-free (SIPF) grade ICR healthy mice (with an equal number of males and females, procured from Hunan Slaughter King Laboratory Animal Co., Changsha, China) were randomly divided into four experimental groups and received ShSPI via airway spray at doses of 0 mg/kg (control), 40 mg/kg, 80 mg/kg, or 160 mg/kg in a single administration. Following treatment, the mice were monitored for a 14-day observation period. On the fourteenth day, blood plasma samples were collected for precise measurement and analysis of hematological and biochemical parameters. The specific process is as follows.
At the end of the 14-day observation period, all mice underwent a comprehensive gross anatomical examination. Key organs, including the heart, liver, spleen, lungs, kidneys, brain, and gastrointestinal tract, were evaluated for changes in surface color, morphological structure, size, and tissue texture.

ICR healthy mice [3] = test: Single administration toxicity study: hematological examination; format: in vivo; conditions: single airway spray, day 14 post-dose, EDTA whole blood, automated hematology analyzer, mean ± s
Protocol: as §1
On day 14 post-dose, approximately 1.7–2.0 mL of whole blood was collected for hematological and biochemical analyses. Hematological parameters were assessed using an automated hematology analyzer, while biochemical parameters were evaluated with an automated biochemistry analyzer. Prior to blood collection, all mice were fasted for at least 12 h. For hematological analysis, 200 μL of whole blood was immediately transferred into EDTA-containing tubes. For biochemical analysis, 1.5 mL of whole blood was placed into serum separator tubes without anticoagulant and centrifuged to isolate serum.

SMILES: CC[C@H](C)[C@@H]1NC(=O)[C@H](C)NC(=O)[C@@H]2CCCN2C(=O)[C@@H]2CSSC[C@H](NC(=O)[C@H](CO)NC(=O)[C@H](CC(N)=O)NC(=O)[C@H](CO)NC(=O)[C@H](Cc3ccc(O)cc3)NC(=O)[C@H](CCSC)NC(=O)[C@H](CCCNC(=N)N)NC(=O)CNC(=O)[C@H](Cc3ccccc3)NC(=O)[C@H](CCC(=O)O)NC(=O)[C@H](CC(=O)O)NC(=O)[C@H](Cc3ccccc3)NC(=O)[C@H](C(C)C)NC(=O)[C@@H]3CCCN3C(=O)[C@H](CCC(N)=O)NC(=O)[C@H](Cc3ccc(O)cc3)NC1=O)C(=O)N[C@@H](CCC(=O)O)C(=O)N[C@@H](CCSC)C(=O)N[C@@H](CCC(N)=O)C(=O)N[C@@H](CCCNC(=N)N)C(=O)N[C@@H](C)C(=O)N[C@@H](CCCNC(=N)N)C(=O)N[C@H](C(=O)N[C@@H](CC(C)C)C(=O)N[C@@H](CCCNC(=N)N)C(=O)NCC(=O)O)CSSC[C@H](N)C(=O)N1CCC[C@H]1C(=O)N[C@@H](CCC(N)=O)C(=O)N[C@@H](C(C)C)C(=O)N2 [ShSPI] (H-CPQVCPAIYQPVFDEFGRMYSNSCEMQRARCLRG-OH; disulfide 1-31, 5-24; N-terminus and C-terminus assumed)
- body weight recovery ([1]; ShSPI low-dose group (1 mg/kg)): upward trend, albeit with a slower recovery rate
- body weight recovery ([1]; ShSPI medium- and high-dose groups (2 and 4 mg/kg)): comparable to that of the positive control group
- histopathological examination of major organs (ICR healthy mice [2]; doses up to 160 mg/kg, end of 14-day observation): no pathological changes
- toxicity after single administration (ICR healthy mice [2]; escalating doses up to 160 mg/kg, 14-day observation): no detectable toxicity observed; also recorded: did not show significant toxic effects
- Bas (ICR healthy mice [3]; 40 mg/kg ShSPI, n = 6): 0.02 ± 0.01 10^9/L
- Bas% (ICR healthy mice [3]; 40 mg/kg ShSPI, n = 6): 0.35 ± 0.28%
- Eos (ICR healthy mice [3]; 40 mg/kg ShSPI, n = 6): 0.09 ± 0.05 10^9/L
- HCT (ICR healthy mice [3]; 40 mg/kg ShSPI, n = 6): 36.98 ± 1.32%
- HGB (ICR healthy mice [3]; 40 mg/kg ShSPI, n = 6): 123.50 ± 5.64 g/L
- Lym (ICR healthy mice [3]; 40 mg/kg ShSPI, n = 6): 6.40 ± 2.49 10^9/L
- Lym% (ICR healthy mice [3]; 40 mg/kg ShSPI, n = 6): 78.20 ± 2.18%
- MCH (ICR healthy mice [3]; 40 mg/kg ShSPI, n = 6): 15.86 ± 0.43 pg
- MCHC (ICR healthy mice [3]; 40 mg/kg ShSPI, n = 6): 333.50 ± 3.98 g/L
- MCV (ICR healthy mice [3]; 40 mg/kg ShSPI, n = 6): 47.56 ± 0.95 fL
- MPV (ICR healthy mice [3]; 40 mg/kg ShSPI, n = 6): 5.35 ± 0.18 fL
- Mon (ICR healthy mice [3]; 40 mg/kg ShSPI, n = 6): 0.28 ± 0.13 10^9/L
- Mon% (ICR healthy mice [3]; 40 mg/kg ShSPI, n = 6): 3.35 ± 0.74%
- Neu (ICR healthy mice [3]; 40 mg/kg ShSPI, n = 6): 1.41 ± 0.69 10^9/L
- Neu% (ICR healthy mice [3]; 40 mg/kg ShSPI, n = 6): 16.78 ± 1.90%
- PCT (ICR healthy mice [3]; 40 mg/kg ShSPI, n = 6): 0.71 ± 0.04%
- PDW (ICR healthy mice [3]; 40 mg/kg ShSPI, n = 6): 15.21 ± 0.17
- PLT (ICR healthy mice [3]; 40 mg/kg ShSPI, n = 6): 1326.50 ± 494.34 10^9/L
- RBC (ICR healthy mice [3]; 40 mg/kg ShSPI, n = 6): 7.78 ± 0.23 10^12/L
- RDW-CV (ICR healthy mice [3]; 40 mg/kg ShSPI, n = 6): 12.70 ± 0.76%
- RDW-SD (ICR healthy mice [3]; 40 mg/kg ShSPI, n = 6): 26.68 ± 1.26 fL
- WBC (ICR healthy mice [3]; 40 mg/kg ShSPI, n = 6): 8.22 ± 3.30 10^9/L
- Bas (ICR healthy mice [3]; 80 mg/kg ShSPI, n = 6): 0.03 ± 0.04 10^9/L
- Bas% (ICR healthy mice [3]; 80 mg/kg ShSPI, n = 6): 0.56 ± 0.60%
- Eos (ICR healthy mice [3]; 80 mg/kg ShSPI, n = 6): 0.22 ± 0.20 10^9/L
- Eos% (ICR healthy mice [3]; 80 mg/kg ShSPI, n = 6): 3.10 ± 2.15%
- HCT (ICR healthy mice [3]; 80 mg/kg ShSPI, n = 6): 35.93 ± 2.11%
- HGB (ICR healthy mice [3]; 80 mg/kg ShSPI, n = 6): 120.33 ± 6.83 g/L
- Lym (ICR healthy mice [3]; 80 mg/kg ShSPI, n = 6): 4.66 ± 1.68 10^9/L
- Lym% (ICR healthy mice [3]; 80 mg/kg ShSPI, n = 6): 68.93 ± 6.78%
- MCH (ICR healthy mice [3]; 80 mg/kg ShSPI, n = 6): 16.08 ± 0.40 pg
- MCHC (ICR healthy mice [3]; 80 mg/kg ShSPI, n = 6): 335.33 ± 6.28 g/L
- MCV (ICR healthy mice [3]; 80 mg/kg ShSPI, n = 6): 47.95 ± 0.38 fL
- MPV (ICR healthy mice [3]; 80 mg/kg ShSPI, n = 6): 5.48 ± 0.48 fL
- Mon (ICR healthy mice [3]; 80 mg/kg ShSPI, n = 6): 0.38 ± 0.05 10^9/L
- Neu (ICR healthy mice [3]; 80 mg/kg ShSPI, n = 6): 1.35 ± 0.40 10^9/L
- Neu% (ICR healthy mice [3]; 80 mg/kg ShSPI, n = 6): 21.23 ± 5.92%
- PCT (ICR healthy mice [3]; 80 mg/kg ShSPI, n = 6): 0.69 ± 0.09%
- PDW (ICR healthy mice [3]; 80 mg/kg ShSPI, n = 6): 15.33 ± 0.10
- PLT (ICR healthy mice [3]; 80 mg/kg ShSPI, n = 6): 1272 ± 206.81 10^9/L
- RBC (ICR healthy mice [3]; 80 mg/kg ShSPI, n = 6): 7.49 ± 0.34 10^12/L
- RDW-CV (ICR healthy mice [3]; 80 mg/kg ShSPI, n = 6): 12.18 ± 0.22%
- RDW-SD (ICR healthy mice [3]; 80 mg/kg ShSPI, n = 6): 25.75 ± 1.03 fL
- WBC (ICR healthy mice [3]; 80 mg/kg ShSPI, n = 6): 6.66 ± 2.04 10^9/L
- Mon% (ICR healthy mice [3]; 80 mg/kg ShSPI, n = 6, * p < 0.05 vs blank control): 6.16 ± 1.76 * %
- Bas (ICR healthy mice [3]; 160 mg/kg ShSPI, n = 6): 0.02 ± 0.01 10^9/L
- Bas% (ICR healthy mice [3]; 160 mg/kg ShSPI, n = 6): 0.20 ± 0.12%
- Eos (ICR healthy mice [3]; 160 mg/kg ShSPI, n = 6): 0.21 ± 0.19 10^9/L
- Eos% (ICR healthy mice [3]; 160 mg/kg ShSPI, n = 6): 1.85 ± 1.23%
- HCT (ICR healthy mice [3]; 160 mg/kg ShSPI, n = 6): 37.81 ± 1.30%
- HGB (ICR healthy mice [3]; 160 mg/kg ShSPI, n = 6): 126.66 ± 4.36 g/L
- Lym (ICR healthy mice [3]; 160 mg/kg ShSPI, n = 6): 8.63 ± 2.79 10^9/L
- Lym% (ICR healthy mice [3]; 160 mg/kg ShSPI, n = 6): 75.90 ± 6.54%
- MCH (ICR healthy mice [3]; 160 mg/kg ShSPI, n = 6): 16.05 ± 0.40 pg
- MCHC (ICR healthy mice [3]; 160 mg/kg ShSPI, n = 6): 335.33 ± 4.13 g/L
- MCV (ICR healthy mice [3]; 160 mg/kg ShSPI, n = 6): 47.86 ± 65 fL
- MPV (ICR healthy mice [3]; 160 mg/kg ShSPI, n = 6): 5.21 ± 0.21 fL
- Mon (ICR healthy mice [3]; 160 mg/kg ShSPI, n = 6): 0.42 ± 0.21 10^9/L
- Mon% (ICR healthy mice [3]; 160 mg/kg ShSPI, n = 6): 3.58 ± 0.74%
- Neu (ICR healthy mice [3]; 160 mg/kg ShSPI, n = 6): 2.23 ± 1.28 10^9/L
- Neu% (ICR healthy mice [3]; 160 mg/kg ShSPI, n = 6): 18.46 ± 5.30%
- PCT (ICR healthy mice [3]; 160 mg/kg ShSPI, n = 6): 0.78 ± 0.07%
- PDW (ICR healthy mice [3]; 160 mg/kg ShSPI, n = 6): 15.21 ± 0.07
- PLT (ICR healthy mice [3]; 160 mg/kg ShSPI, n = 6): 1511.2 ± 178.44 10^9/L
- RBC (ICR healthy mice [3]; 160 mg/kg ShSPI, n = 6): 7.90 ± 0.31 10^12/L
- RDW-CV (ICR healthy mice [3]; 160 mg/kg ShSPI, n = 6): 12.83 ± 0.74%
- RDW-SD (ICR healthy mice [3]; 160 mg/kg ShSPI, n = 6): 27.20 ± 1.81 fL
- WBC (ICR healthy mice [3]; 160 mg/kg ShSPI, n = 6): 11.5 ± 4.13 10^9/L
